Laboratory results reported in patent publication US20120208851A1, “FORMULATIONS” (NEUROSYSTEC CORPORATION, priority 2008, published 2012).

Key:
[1] = Binding of gacyclidine by PLGA nanoparticles (gacyclidine in suspension by HPLC); assay type: physicochemical
Description: Water (pH 7.2) was mixed with acetone solutions containing 2 grams/liter 5050 DLG 3E (PLGA, Lakeshore Biomaterials, solution A) or a solution of 2 grams/liter 5050 DLG 3E and 2 grams/liter gacyclidine base (solution B) or a solution of 2 grams/liter gacyclidine base (solution C). Rapid mixing was accomplished by pumping water into a T-mixer at 5 milliliters/minute and solution A, B, or C into the same T-mixer at 1 milliliter/minute.
Acetone was eliminated from the suspension of particles prepared by mixing water with solution B by stirring the suspension in an open beaker for three days. The particle suspension was then passed through a 0.2 micrometer polyethersulfone syringe filter (VWR International) to eliminate larger particles. […] These nanoparticles were then concentrated by pressure dialysis with a 10,000 MWCO cellulose membrane (Amicon) to a final volume of 17 milliliters. The average particle diameter in the concentrated suspension was determined to be 53 nanometers by dynamic light scattering.
To determine the gacyclidine concentration in the nanoparticle suspension, an aliquot (20 to 50 microliters) was diluted with 10 millimolar hydrochloric acid to a final volume of 1.8 milliliter and then analyzed by high-performance liquid chromatography. Gacyclidine in the concentrated suspension was determined to be 0.68 millimolar (0.18 grams/liter; 3.1 milligrams gacyclidine base; 8% of the initial gacyclidine). When this suspension was passed through a 0.2 micrometer polyethersulfone syringe filter (VWR International) it further reduced the concentration of gacyclidine to 0.23 millimolar (0.06 grams/liter; 1.0 milligrams gacyclidine base; 2.5% of the initial gacyclidine). […] After filtration of the pH 9.1 nanoparticle suspension through a 0.2 micrometer polyethersulfone syringe filter (VWR International) the concentration of particles was not reduced, based on light scattering intensity, nor was the average diameter of particles (58 nanometers, post-filtration) substantially altered. However, the concentration of gacyclidine present in the nanoparticle suspension, after adjusting the pH to 9.1 and passage through a 0.2 micrometer filter, was reduced to approximately 0.02 millimolar (0.005 grams/liter; 0.09 milligrams gacyclidine base; 0.2% of the initial gacyclidine). […] Very little of the gacyclidine in the initial nanoparticle preparation was bound to the PLGA nanoparticles, but was instead dissolved in the aqueous phase surrounding the particles.

[2] = Solubility of gacyclidine base in squalene; assay type: physicochemical
Procedure: Squalene was added to 1 gram of gacyclidine free base in 1 milliliter aliquots until the gacyclidine base went into solution. The minimum amount of squalene required to dissolve 1 gram of gacyclidine base was 9 milliliters. A suspension of gacyclidine-containing squalene was prepared by adding 4.3 milliliters of the gacyclidine solution in squalene (1 gram gacyclidine base dissolved in 9 milliliters squalene), 0.5 milliliters of polysorbate 80, 0.5 milliliters of sorbitan trioleate, 35 milligrams of dipotassium phosphate, 1 milligram of citric acid, and 877 milligrams of sodium chloride to a graduated cylinder and bringing the mixture to a final volume of 100 milliliters with water. The suspension of squalene-gacyclidine in phosphate buffered saline was passed through a Microfluidics M-110S high pressure homogenizer equipped with a G10Z 87 micrometer ceramic interaction chamber at 23,000 pounds per square inch. After 7 passes through the homogenizer with the interaction chamber maintained in an ice bath, the average particle diameter of the squalene-gacyclidine emulsion was determined to be 135 nanometers by use of a Horiba LB-550 dynamic light scattering particle size analyzer. After 7 additional passes of the emulsion through the homogenizer with the interaction chamber maintained in an ice bath, the average particle diameter was determined to be 122 nanometers. After 7 additional passes of the emulsion through the homogenizer with the interaction chamber maintained in an ice bath, the average particle diameter was determined to be 114 nanometers. After 7 additional passes of the emulsion through the homogenizer with the interaction chamber maintained in an ice bath, the average particle diameter was determined to be 112 nanometers. Extensive analysis of the squalene-gacyclidine emulsion determined that the average particle diameter was between 107 to 123 nanometers. The pH and osmolality of the squalene-gacyclidine emulsion were determined to be 7.6 and 279 milliosmolal, respectively.

[3] = concentrated PLGA suspension passed through 0.2 micrometer polyethersulfone syringe filter
[4] = pH 9.1, passage through 0.2 micrometer filter

| Structure (SMILES) | % of the initial gacyclidine in the concentrated suspension ([1]; PLGA+gacyclidine nanoparticles after 0.2 micrometer filtration and pressure dialysis concentration) [%] | Gacyclidine in the concentrated suspension ([1]; PLGA+gacyclidine nanoparticles after 0.2 micrometer filtration and pressure dialysis concentration, HPLC) [millimolar] | affinity for PLGA ([1]; based on final amount of gacyclidine remaining associated with PLGA nanoparticles) | % of the initial gacyclidine after passing concentrated suspension through 0.2 micrometer filter [1, 3] [%] | concentration of gacyclidine after passing concentrated suspension through 0.2 micrometer filter [1, 3] [millimolar] | % of the initial gacyclidine after adjusting pH to 9.1 and filtration [1, 4] [%] | concentration of gacyclidine in the nanoparticle suspension after adjusting pH to 9.1 and filtration [1, 4] | limit of solubility in the squalene phase [2] | minimum amount of squalene required to dissolve 1 gram of gacyclidine base ([2]; squalene added in 1 milliliter aliquots) [milliliters] |
| --- | --- | --- | --- | --- | --- | --- | --- | --- | --- |
| CC1CCCCC1(c1cccs1)N1CCCCC1 (stereo not shown) [gacyclidine] | 8 | 0.68 | does not have a high affinity for PLGA | 2.5 | 0.23 | 0.2 | approximately 0.02 millimolar | 1 gram of gacyclidine for every 9 milliliters of squalene | 9 |
| CNC1(c2ccccc2Cl)CCCCC1=O (stereo not shown) [ketamine] | – | – | – | – | – | – | – | similar | – |
